Results published in patent US10376499B2, “Combination therapy for treatment of resistant bacterial infections” (priority 2014, dated 2019).

System: A. baumannii
Experiment: MIC by broth microdilution (CLSI), panel of 60 A. baumannii clinical isolates (Example 1)
[1] = Acinetobacter baumannii, strain ARC593, OXA-98
[2] = Acinetobacter baumannii, strain ARC2461, OXA-66, TEM-1
[3] = Acinetobacter baumannii, strain ARC2462, TEM-1, OXA-66
[4] = Acinetobacter baumannii, strain ARC2598, OXA*, TEM-1, OXA-113
[5] = Acinetobacter baumannii, strain ARC2635, OXA-65, OXA-40, TEM-1
[6] = Acinetobacter baumannii, strain ARC2636, OXA-65, OXA-40, TEM-1
[7] = Acinetobacter baumannii, strain ARC2674, SHV-5, OXA-113
[8] = Acinetobacter baumannii, strain ARC2675, SHV-5, OXA-113
[9] = Acinetobacter baumannii, strain ARC2681, OXA-40, TEM-1, OXA-132
[10] = Acinetobacter baumannii, strain ARC2682, SHV-5, OXA-113
[11] = Acinetobacter baumannii, strain ARC2777, OXA-172, TEM-1
[12] = Acinetobacter baumannii, strain ARC2778, OXA-40, TEM-1, OXA-65
[13] = Acinetobacter baumannii, strain ARC2780 (A. baumannii/calcoaceticus complex), OXA*, OXA-2, IMP-1
[14] = Acinetobacter baumannii, strain ARC2782, OXA-66, OXA-23, TEM-1, PER-1
[15] = Acinetobacter baumannii, strain ARC2788, OXA-65, TEM-1
[16] = Acinetobacter baumannii, strain ARC3484, TEM-1, OXA-23, OXA-64
[17] = Acinetobacter baumannii, strain ARC3485, OXA-82
[18] = Acinetobacter baumannii, strain ARC3486, OXA-72, OXA-66, TEM-1
[19] = Acinetobacter baumannii, strain ARC3487, OXA-20, OXA-58, OXA-66
[20] = Acinetobacter baumannii, strain ARC3488, OXA*, OXA-68
[21] = Acinetobacter baumannii, strain ARC3489, OXA*, OXA-68
[22] = Acinetobacter baumannii, strain ARC3490, TEM-1+, PSE-2, OXA-69
[23] = Acinetobacter baumannii, strain ARC3491 (A. baumannii/calcoaceticus complex), OXA-215
[24] = Acinetobacter baumannii, strain ARC3492, OXA-40, OXA-132, TEM-1
[25] = Acinetobacter baumannii, strain ARC3493, OXA-40, OXA-66
[26] = Acinetobacter baumannii, strain ARC3494, OXA-65
[27] = Acinetobacter baumannii, strain ARC3495, OXA-40, OXA-109
[28] = Acinetobacter baumannii, strain ARC3513, TEM-1, OXA-23, OXA-65
[29] = Acinetobacter baumannii, strain ARC3515, OXA-64, OXA-58
[30] = Acinetobacter baumannii, strain ARC3657, OXA-130
[31] = Acinetobacter baumannii, strain ARC3658, OXA-66, PER-1, TEM-1, OXA-23
[32] = Acinetobacter baumannii, strain ARC3659, OXA-23, OXA*
[33] = Acinetobacter baumannii, strain ARC3882, OXA-23, NDM-1, OXA-10*
[34] = Acinetobacter baumannii, strain ARC5073, OXA-23, TEM-1, OXA-64, PER-1
[35] = Acinetobacter baumannii, strain ARC5074, GES*, TEM-1, OXA-51
[36] = Acinetobacter baumannii, strain ARC5075, SHV-5, OXA-113
[37] = Acinetobacter baumannii, strain ARC5076, TEM-1, OXA-23, OXA-66
[38] = Acinetobacter baumannii, strain ARC5077, OXA*, OXA-72
[39] = Acinetobacter baumannii, strain ARC5079, OXA-72, OXA-65
[40] = Acinetobacter baumannii, strain ARC5080, OXA-71, OXA-40
[41] = Acinetobacter baumannii, strain ARC5081, OXA-94, OXA-23
[42] = Acinetobacter baumannii, strain ARC5082, OXA-66, OXA-23
[43] = Acinetobacter baumannii, strain ARC5083, OXA-66, OXA-23
[44] = Acinetobacter baumannii, strain ARC5084, IMP-4(B), OXA-58, OXA-65
[45] = Acinetobacter baumannii, strain ARC5085, OXA*, TEM-1
[46] = Acinetobacter baumannii, strain ARC5086, OXA*, TEM-1, OXA-72, OXA-66
[47] = Acinetobacter baumannii, strain ARC5087, OXA-66, OXA-23
[48] = Acinetobacter baumannii, strain ARC5088, OXA-20, OXA-58, OXA-66
[49] = Acinetobacter baumannii, strain ARC5089, PER*, TEM-1, OXA-23, OXA-66
[50] = Acinetobacter baumannii, strain ARC5091, OXA-82, OXA-23
[51] = Acinetobacter baumannii, strain ARC5092, OXA-23, OXA-64
[52] = strain ARC2779 (A. baumannii/calcoaceticus complex), OXA-2, VIM-2

C[C@H]1COc2c(N3CCN(C)CC3)c(F)cc3c(=O)c(C(=O)O)cn1c23 [LEVO, levofloxacin]
0.125 µg/mL: MIC (strain ARC2058, OXA-95) | MIC [52]
8 µg/mL: MIC50 (Acinetobacter baumannii) | MIC [16] | MIC [18] | MIC [19] | MIC [24] | MIC [29] | MIC [31] | MIC [32] | MIC [34] | MIC [37] | MIC [41] | MIC [42] | MIC [48] | MIC [51]
16 µg/mL: MIC [2] | MIC [3] | MIC [5] | MIC [6] | MIC [7] | MIC [9] | MIC [10] | MIC [17] | MIC [21] | MIC [22] | MIC [28] | MIC [30] | MIC [38] | MIC [39] | MIC [40] | MIC [46] | MIC [49]
1 µg/mL: MIC [23]
32 µg/mL: MIC90 (Acinetobacter baumannii) | MIC [8] | MIC [11] | MIC [12] | MIC [15] | MIC [20] | MIC [36] | MIC [45]
4 µg/mL: MIC [4] | MIC [13] | MIC [14] | MIC [25] | MIC [27] | MIC [33] | MIC [35] | MIC [44]
> 32 µg/mL: MIC [43] | MIC [47] | MIC [50]
0.25 µg/mL: MIC [1] | MIC [26]

CN(C)[C@@H]1C(O)=C(C(N)=O)C(=O)[C@@]2(O)C(O)=C3C(=O)c4c(O)cccc4[C@@](C)(O)[C@H]3C[C@@H]12 [TET, tetracycline]
32 µg/mL: MIC [11] | MIC [17] | MIC [50] | MIC [51]
1 µg/mL: MIC (Acinetobacter baumannii, strain ARC2058, OXA-95) | MIC [35]
> 32 µg/mL: MIC90 (Acinetobacter baumannii) | MIC [2] | MIC [3] | MIC [4] | MIC [7] | MIC [9] | MIC [12] | MIC [14] | MIC [16] | MIC [18] | MIC [20] | MIC [21] | MIC [24] | MIC [25] | MIC [27] | MIC [29] | MIC [31] | MIC [34] | MIC [36] | MIC [37] | MIC [38] | MIC [42] | MIC [43] | MIC [45] | MIC [46] | MIC [47]
2 µg/mL: MIC [1] | MIC (Acinetobacter baumannii, strain ARC2779 (A. baumannii/calcoaceticus complex), OXA-2, VIM-2) | MIC [13] | MIC [26] | MIC [41] | MIC [44]
4 µg/mL: MIC [15] | MIC [23] | MIC [49]
16 µg/mL: MIC50 (Acinetobacter baumannii) | MIC [6] | MIC [8] | MIC [19] | MIC [40] | MIC [48]
8 µg/mL: MIC [5] | MIC [10] | MIC [22] | MIC [28] | MIC [30] | MIC [32] | MIC [33] | MIC [39]

colistin
4 µg/mL: MIC (strain ARC2780 (A. baumannii/calcoaceticus complex), OXA*, OXA-2, IMP-1)
0.5 µg/mL: MIC (strain ARC593, OXA-98) | MIC (strain ARC2058, OXA-95) | MIC (strain ARC2777, OXA-172, TEM-1) | MIC (strain ARC3490, TEM-1+, PSE-2, OXA-69) | MIC (strain ARC3491 (A. baumannii/calcoaceticus complex), OXA-215) | MIC (strain ARC3494, OXA-65) | MIC (strain ARC3657, OXA-130) | MIC (strain ARC5077, OXA*, OXA-72) | MIC (strain ARC5082, OXA-66, OXA-23)
0.125 µg/mL: MIC (strain ARC2461, OXA-66, TEM-1) | MIC (strain ARC2462, TEM-1, OXA-66) | MIC (strain ARC2636, OXA-65, OXA-40, TEM-1) | MIC (strain ARC2675, SHV-5, OXA-113) | MIC (strain ARC2782, OXA-66, OXA-23, TEM-1, PER-1) | MIC (strain ARC2788, OXA-65, TEM-1) | MIC (strain ARC3484, TEM-1, OXA-23, OXA-64) | MIC (strain ARC3882, OXA-23, NDM-1, OXA-10*) | MIC (strain ARC5073, OXA-23, TEM-1, OXA-64, PER-1) | MIC (strain ARC5074, GES*, TEM-1, OXA-51) | MIC (strain ARC5079, OXA-72, OXA-65) | MIC (strain ARC5081, OXA-94, OXA-23) | MIC (strain ARC5083, OXA-66, OXA-23) | MIC (strain ARC5084, IMP-4(B), OXA-58, OXA-65) | MIC (strain ARC5086, OXA*, TEM-1, OXA-72, OXA-66) | MIC (strain ARC5088, OXA-20, OXA-58, OXA-66) | MIC (strain ARC5089, PER*, TEM-1, OXA-23, OXA-66)
8 µg/mL: MIC (strain ARC5091, OXA-82, OXA-23)
32 µg/mL: MIC (strain ARC3493, OXA-40, OXA-66)
1 µg/mL: MIC (strain ARC3513, TEM-1, OXA-23, OXA-65) | MIC (strain ARC5085, OXA*, TEM-1)
0.25 µg/mL: MIC (strain ARC2598, OXA*, TEM-1, OXA-113) | MIC (strain ARC2635, OXA-65, OXA-40, TEM-1) | MIC (strain ARC2674, SHV-5, OXA-113) | MIC (strain ARC2681, OXA-40, TEM-1, OXA-132) | MIC (strain ARC2682, SHV-5, OXA-113) | MIC (strain ARC2778, OXA-40, TEM-1, OXA-65) | MIC [52] | MIC (strain ARC3485, OXA-82) | MIC (strain ARC3486, OXA-72, OXA-66, TEM-1) | MIC (strain ARC3487, OXA-20, OXA-58, OXA-66) | MIC (strain ARC3489, OXA*, OXA-68) | MIC (strain ARC3492, OXA-40, OXA-132, TEM-1) | MIC (strain ARC3495, OXA-40, OXA-109) | MIC (strain ARC3515, OXA-64, OXA-58) | MIC (strain ARC3658, OXA-66, PER-1, TEM-1, OXA-23) | MIC (strain ARC3659, OXA-23, OXA*) | MIC (strain ARC5075, SHV-5, OXA-113) | MIC (strain ARC5076, TEM-1, OXA-23, OXA-66) | MIC (strain ARC5080, OXA-71, OXA-40) | MIC (strain ARC5087, OXA-66, OXA-23)
>32 µg/mL: MIC (strain ARC5092, OXA-23, OXA-64)
2 µg/mL: MIC (strain ARC3488, OXA*, OXA-68)
